According to ChEMBL document CHEMBL2380193, “New trifluoromethyl quinolone derivatives: synthesis and investigation of antimicrobial properties” (2013):
In brackets after ≈: the same amount, converted by molar mass.

Experiments:
Bacillus subtilis [1] = assay: Antibacterial activity against Bacillus subtilis MTCC 441 assessed as zone of inhibition at 100 ug/ml after 14 hrs by cup plate method; format: functional; conditions: MTCC 441, 14 h, read-out: IZ
Staphylococcus aureus [2] = assay: Antibacterial activity against Staphylococcus aureus MTCC 096 after 14 hrs by serial dilution method; format: functional; conditions: MTCC 096, 14 h
Staphylococcus aureus [3] = assay: Antibacterial activity against Staphylococcus aureus MTCC 096 assessed as zone of inhibition at 100 ug/ml after 14 hrs by cup plate method; format: functional; conditions: MTCC 096, 14 h, read-out: IZ
Klebsiella pneumoniae [4] = assay: Antibacterial activity against Klebsiella pneumoniae MTCC 432 after 14 hrs by serial dilution method; format: functional; conditions: MTCC 432, 14 h
Klebsiella pneumoniae [5] = assay: Antibacterial activity against Klebsiella pneumoniae MTCC 432 assessed as zone of inhibition at 100 ug/ml after 14 hrs by cup plate method; format: functional; conditions: MTCC 432, 14 h, read-out: IZ
Aspergillus flavus [6] = assay: Antifungal activity against Aspergillus flavus MTCC 277 after 30 hrs by serial dilution method; format: functional; conditions: MTCC 277, 30 h
Aspergillus flavus [7] = assay: Antifungal activity against Aspergillus flavus MTCC 277 assessed as zone of inhibition at 100 ug/ml after 30 hrs by cup plate method; format: functional; conditions: MTCC 277, 30 h, read-out: IZ
Escherichia coli [8] = assay: Antibacterial activity against Escherichia coli MTCC 443 after 14 hrs by serial dilution method; format: functional; conditions: MTCC 443, 14 h
Aspergillus fumigatus [9] = assay: Antifungal activity against Aspergillus fumigatus MTCC 343 assessed as zone of inhibition at 100 ug/ml after 30 hrs by cup plate method; format: functional; conditions: MTCC 343, 30 h, read-out: IZ
Candida albicans [10] = assay: Antifungal activity against Candida albicans MTCC 227 after 30 hrs by serial dilution method; format: functional; conditions: MTCC 227, 30 h
Escherichia coli [11] = assay: Antibacterial activity against Escherichia coli MTCC 443 assessed as zone of inhibition at 100 ug/ml after 14 hrs by cup plate method; format: functional; conditions: MTCC 443, 14 h, read-out: IZ
Bacillus subtilis [12] = assay: Antibacterial activity against Bacillus subtilis MTCC 441 after 14 hrs by serial dilution method; format: functional; conditions: MTCC 441, 14 h
Aspergillus niger [13] = assay: Antifungal activity against Aspergillus niger MTCC 282 after 30 hrs by serial dilution method; format: functional; conditions: MTCC 282, 30 h
Aspergillus niger [14] = assay: Antifungal activity against Aspergillus niger MTCC 282 assessed as zone of inhibition at 100 ug/ml after 30 hrs by cup plate method; format: functional; conditions: MTCC 282, 30 h, read-out: IZ
Aspergillus fumigatus [15] = assay: Antifungal activity against Aspergillus fumigatus MTCC 343 after 30 hrs by serial dilution method; format: functional; conditions: MTCC 343, 30 h
Salmonella typhi [16] = assay: Antibacterial activity against Salmonella typhi MTCC 733 after 14 hrs by serial dilution method; format: functional, Salmonella enterica subsp. enterica serovar Typhi; conditions: Salmonella enterica, MTCC 733, 14 h
Candida albicans [17] = assay: Antifungal activity against Candida albicans MTCC 227 assessed as zone of inhibition at 100 ug/ml after 30 hrs by cup plate method; format: functional; conditions: MTCC 227, 30 h, read-out: IZ
Salmonella typhi [18] = assay: Antibacterial activity against Salmonella typhi MTCC 733 assessed as zone of inhibition at 100 ug/ml after 14 hrs by cup plate method; format: functional, Salmonella enterica subsp. enterica serovar Typhi; conditions: Salmonella enterica, MTCC 733, 14 h; read-out: IZ

| Structure (SMILES) | zone of inhibition at 100 µg/mL (Bacillus subtilis [1]) | MIC (Staphylococcus aureus [2]) | zone of inhibition at 100 µg/mL (Staphylococcus aureus [3]) | MIC (Klebsiella pneumoniae [4]) | zone of inhibition at 100 µg/mL (Klebsiella pneumoniae [5]) | MIC (Aspergillus flavus [6]) | zone of inhibition at 100 µg/mL (Aspergillus flavus [7]) | MIC (Escherichia coli [8]) | zone of inhibition at 100 µg/mL (Aspergillus fumigatus [9]) | MIC (Candida albicans [10]) | zone of inhibition at 100 µg/mL (Escherichia coli [11]) | MIC (Bacillus subtilis [12]) | MIC (Aspergillus niger [13]) | zone of inhibition at 100 µg/mL (Aspergillus niger [14]) | MIC (Aspergillus fumigatus [15]) | MIC (Salmonella typhi [16]) | zone of inhibition at 100 µg/mL (Candida albicans [17]) | zone of inhibition at 100 µg/mL (Salmonella typhi [18]) |
| --- | --- | --- | --- | --- | --- | --- | --- | --- | --- | --- | --- | --- | --- | --- | --- | --- | --- | --- |
| O=c1cc(C(F)(F)F)n(C/C=C/CN2CCCC2)c2ccc(F)cc12 | 12 mm | 6.25 µg/mL (≈ 17.6 µM) | 15 mm | 12.5 µg/mL (≈ 35.3 µM) | 12 mm | 12.5 µg/mL (≈ 35.3 µM) | 12 mm | 50 µg/mL (≈ 141 µM) | 12 mm | 6.25 µg/mL (≈ 17.6 µM) | < 10 mm | 12.5 µg/mL (≈ 35.3 µM) | 12.5 µg/mL (≈ 35.3 µM) | 12 mm | 12.5 µg/mL (≈ 35.3 µM) | 25 µg/mL (≈ 70.6 µM) | 15 mm | < 10 mm |
| O=c1cc(C(F)(F)F)n(CCCCN2CCCC2)c2ccc(F)cc12 | 15 mm | 6.25 µg/mL (≈ 17.5 µM) | 14 mm | 12.5 µg/mL (≈ 35.1 µM) | 13 mm | 12.5 µg/mL (≈ 35.1 µM) | 12 mm | 50 µg/mL (≈ 140 µM) | 12 mm | 6.25 µg/mL (≈ 17.5 µM) | < 10 mm | 6.25 µg/mL (≈ 17.5 µM) | 12.5 µg/mL (≈ 35.1 µM) | 12 mm | 12.5 µg/mL (≈ 35.1 µM) | 12.5 µg/mL (≈ 35.1 µM) | 16 mm | 12 mm |
| O=c1cc(C(F)(F)F)n(C/C=C/CN2CCCCC2)c2ccc(F)cc12 | 12 mm | 12.5 µg/mL (≈ 33.9 µM) | 13 mm | 12.5 µg/mL (≈ 33.9 µM) | 12 mm | 25 µg/mL (≈ 67.9 µM) | < 10 mm | 50 µg/mL (≈ 136 µM) | < 10 mm | 12.5 µg/mL (≈ 33.9 µM) | < 10 mm | 12.5 µg/mL (≈ 33.9 µM) | 6.25 µg/mL (≈ 17 µM) | 17 mm | 25 µg/mL (≈ 67.9 µM) | 25 µg/mL (≈ 67.9 µM) | 12 mm | < 10 mm |
| O=c1cc(C(F)(F)F)n(C/C=C/CN2CCOCC2)c2ccc(F)cc12 | 14 mm | 12.5 µg/mL (≈ 33.8 µM) | 12 mm | 25 µg/mL (≈ 67.5 µM) | < 10 mm | 25 µg/mL (≈ 67.5 µM) | < 10 mm | 25 µg/mL (≈ 67.5 µM) | < 10 mm | 6.25 µg/mL (≈ 16.9 µM) | < 10 mm | 6.25 µg/mL (≈ 16.9 µM) | 6.25 µg/mL (≈ 16.9 µM) | 17 mm | 25 µg/mL (≈ 67.5 µM) | 50 µg/mL (≈ 135 µM) | 15 mm | < 10 mm |
| CN1CCN(C/C=C/Cn2c(C(F)(F)F)cc(=O)c3cc(F)ccc32)CC1 | 14 mm | 6.25 µg/mL (≈ 16.3 µM) | 15 mm | 12.5 µg/mL (≈ 32.6 µM) | 12 mm | 12.5 µg/mL (≈ 32.6 µM) | 12 mm | 50 µg/mL (≈ 130 µM) | 12 mm | 6.25 µg/mL (≈ 16.3 µM) | < 10 mm | 6.25 µg/mL (≈ 16.3 µM) | 12.5 µg/mL (≈ 32.6 µM) | 12 mm | 12.5 µg/mL (≈ 32.6 µM) | 12.5 µg/mL (≈ 32.6 µM) | 15 mm | 12 mm |
| Cc1ccc2nc(C(F)(F)F)cc(OCCCCN3C(=O)c4ccccc4C3=O)c2c1 | 15 mm | 6.25 µg/mL (≈ 14.6 µM) | 15 mm | 6.25 µg/mL (≈ 14.6 µM) | 15 mm | 50 µg/mL (≈ 117 µM) | < 10 mm | 50 µg/mL (≈ 117 µM) | 12 mm | 6.25 µg/mL (≈ 14.6 µM) | < 10 mm | 6.25 µg/mL (≈ 14.6 µM) | 6.25 µg/mL (≈ 14.6 µM) | 17 mm | 12.5 µg/mL (≈ 29.2 µM) | 12.5 µg/mL (≈ 29.2 µM) | 15 mm | 12 mm |
| O=c1cc(C(F)(F)F)n(CCCCN2CCCCC2)c2ccc(F)cc12 | < 10 mm | 12.5 µg/mL (≈ 33.7 µM) | 12 mm | 12.5 µg/mL (≈ 33.7 µM) | 12 mm | 12.5 µg/mL (≈ 33.7 µM) | 12 mm | 50 µg/mL (≈ 135 µM) | < 10 mm | 6.25 µg/mL (≈ 16.9 µM) | < 10 mm | 25 µg/mL (≈ 67.5 µM) | 12.5 µg/mL (≈ 33.7 µM) | 12 mm | 25 µg/mL (≈ 67.5 µM) | 50 µg/mL (≈ 135 µM) | 15 mm | < 10 mm |
| O=c1cc(C(F)(F)F)n(CCCCN2CCOCC2)c2ccc(F)cc12 | 13 mm | 6.25 µg/mL (≈ 16.8 µM) | 15 mm | 25 µg/mL (≈ 67.1 µM) | < 10 mm | 25 µg/mL (≈ 67.1 µM) | < 10 mm | 50 µg/mL (≈ 134 µM) | < 10 mm | 6.25 µg/mL (≈ 16.8 µM) | < 10 mm | 12.5 µg/mL (≈ 33.6 µM) | 12.5 µg/mL (≈ 33.6 µM) | 13 mm | 25 µg/mL (≈ 67.1 µM) | 25 µg/mL (≈ 67.1 µM) | 15 mm | < 10 mm |
| CN1CCN(CCCCn2c(C(F)(F)F)cc(=O)c3cc(F)ccc32)CC1 | 15 mm | 6.25 µg/mL (≈ 16.2 µM) | 15 mm | 25 µg/mL (≈ 64.9 µM) | < 10 mm | 25 µg/mL (≈ 64.9 µM) | < 10 mm | 50 µg/mL (≈ 130 µM) | 12 mm | 12.5 µg/mL (≈ 32.4 µM) | < 10 mm | 6.25 µg/mL (≈ 16.2 µM) | 6.25 µg/mL (≈ 16.2 µM) | 14 mm | 12.5 µg/mL (≈ 32.4 µM) | 50 µg/mL (≈ 130 µM) | 12 mm | < 10 mm |
| O=C(O)c1cn(C2CC2)c2cc(N3CCNCC3)c(F)cc2c1=O [CIPROFLOXACIN] | 18 mm |  | 17 mm | 6.25 µg/mL (≈ 18.9 µM) | 18 mm |  |  |  |  |  | 18 mm | 6.25 µg/mL (≈ 18.9 µM) |  |  |  |  |  | 14 mm |
| Clc1ccc(COC(Cn2ccnc2)c2ccc(Cl)cc2Cl)c(Cl)c1 (configuration not stated) [MICONAZOLE] |  |  |  |  |  | 6.25 µg/mL (≈ 15 µM) | 17 mm |  | 14 mm | 6.25 µg/mL (≈ 15 µM) |  |  | 6.25 µg/mL (≈ 15 µM) | 17 mm | 12.5 µg/mL (≈ 30 µM) |  | 17 mm |  |
